From US10383912B2, “Tunable pH-sensitive linker for controlled drug release” (Washington State University, priority 2014, dated 2019) come the findings set out here.

Data set [1] can be described thus: pH stability: half-lives for P—N bond hydrolysis of model linkers. Format: physicochemical. An excerpt:
The present disclosure provides a method of screening for conjugates that can deliver an agent at a specific pH. In one aspect, conjugates having formula (I) comprising various substituents neighboring the ionizable group and having varying length between the ionizable group and the phosphorus center could be screened to determine which conjugates will hydrolyze at pH 3.0, 3.5, 4.0, 4.5, 5.0, 5.5, 6.0, and 6.5. In another aspect, a specific conjugate can be screened to determine at which pH it will hydrolyze or which pH its rate of hydrolysis is the fastest. The hydrolysis of the conjugate can be monitored by nuclear magnetic resonance (NMR) (FIG. 6), HPLC, spectrophotometric methods, or mass spectrometry.
It was observed from studies on distance effects that proximity of a neighboring, but electronically isolated, functional group, can be used to alter the stability of a phorphoramidate bond.

The nature of data set [2]: Plasma stability of cleavable linkers. The data set is classed as in vitro ADME. On the procedure:
When a conjugate is administered to a subject in vivo, its plasma stability is important. The present disclosure provides conjugates with the desired plasma stability. Plasma stability of cleavable linkers with the desired release profile are provided herein.

Regarding `O=P(O)(NCCc1ccccc1)OCCCc1cccnc1` [Entry H5], in data set [1], the “½ Lives for P—N Bond Hydrolysis, pH 3” value is listed as 1.9 hr; the “½ Lives for P—N Bond Hydrolysis, pH 4.5” value was determined as 19.3 hr; the “½ Lives for P—N Bond Hydrolysis, pH 6.5 (result in words)” value is listed as “Stable”; the “½ Lives for P—N Bond Hydrolysis, pH 7.4” value was 90 day days. In data set [1] (pH 5.5), the “½ Lives for P—N Bond Hydrolysis, pH 5.5” value was determined as 8 day days.

Take `O=P(O)(Nc1ccccc1)OCCCc1cccnc1` [Entry H7]: in data set [1], the “½ Lives for P—N Bond Hydrolysis, pH 3” value is recorded as 1.6 day days; the “½ Lives for P—N Bond Hydrolysis, pH 4.5” value amounted to 133 days; the “½ Lives for P—N Bond Hydrolysis, pH 4.5 (result in words)” value is reported as “Stable”; the “½ Lives for P—N Bond Hydrolysis, pH 6.5” value is listed as 8 days. Moreover, in data set [1], the “½ Lives for P—N Bond Hydrolysis, pH 6.5 (result in words)” value is on record as “STABLE” and the “½ Lives for P—N Bond Hydrolysis, pH 7.4” value is listed as 27 day days. The “½ Lives for P—N Bond Hydrolysis, pH 5.5” value in data set [1] (pH 5.5) was 16 day days.

In the case of `CN(CCc1ccccc1)P(=O)(O)OCCCc1cccnc1` [Entry H9], in data set [2] (Plasma (pH 7.23)), the “½ Life for P—N Bond Hydrolysis, Plasma” value was determined as 27.5 h. Further, in data set [1], the “½ Lives for P—N Bond Hydrolysis, pH 3” value came to 0.48 hr; the “½ Lives for P—N Bond Hydrolysis, pH 6.5” value was determined as 19.3 hr; the “½ Lives for P—N Bond Hydrolysis, pH 7.4” value is reported as 2.7 days. Moreover, the “½ Lives for P—N Bond Hydrolysis, pH 5.5” value in data set [1] (pH 5.5) worked out at 3.2 hr.

As for `CN(c1ccccc1)P(=O)(O)OCCCc1cccnc1` [Entry H11], in data set [1], the “½ Lives for P—N Bond Hydrolysis, pH 3” value turned out to be 0.48 hr; the “½ Lives for P—N Bond Hydrolysis, pH 6.5” value was 1.1 days; the “½ Lives for P—N Bond Hydrolysis, pH 7.4” value stood at 10 day days. For the same compound, the “½ Lives for P—N Bond Hydrolysis, pH 5.5” value in data set [1] (pH 5.5) is on record as 9.6 hr.

With `O=P(O)(NCCc1ccccc1)OCCCc1ccccn1` [Entry H41], in data set [1], the “½ Lives for P—N Bond Hydrolysis, pH 3” value is 2.1 hr; the “½ Lives for P—N Bond Hydrolysis, pH 4.5” value came to 9.63 hr; the “½ Lives for P—N Bond Hydrolysis, pH 6.5” value came to 24.1 hr; the “½ Lives for P—N Bond Hydrolysis, pH 7.4” value was 11 days. In data set [1] (pH 5.5), the “½ Lives for P—N Bond Hydrolysis, pH 5.5” value worked out at 19.3 hr.

Turning to `CN(CCc1ccccc1)P(=O)(O)OCCCc1ccccn1` [Entry H43], the “½ Life for P—N Bond Hydrolysis, Plasma” value in data set [2] (Plasma (pH 7.38)) is 19.3 h. For the same compound, in data set [1], the “½ Lives for P—N Bond Hydrolysis, pH 3” value is listed as 0.21 hr; the “½ Lives for P—N Bond Hydrolysis, pH 6.5” value came out at 3.85 hr; the “½ Lives for P—N Bond Hydrolysis, pH 7.4” value stood at 21.4 hr. The “½ Lives for P—N Bond Hydrolysis, pH 5.5” value in data set [1] (pH 5.5) is reported as 1.2 hr.

For the compound `O=P(O)(Nc1ccccc1)OCCCc1ccccn1` [Entry H45], in data set [1], the “½ Lives for P—N Bond Hydrolysis, pH 3” value is given as 1.6 day days; the “½ Lives for P—N Bond Hydrolysis, pH 4.5” value amounted to 8.9 day days; the “½ Lives for P—N Bond Hydrolysis, pH 6.5” value is recorded as 8 days; the “½ Lives for P—N Bond Hydrolysis, pH 7.4” value came out at 4 day days. For the same compound, the “½ Lives for P—N Bond Hydrolysis, pH 5.5” value in data set [1] (pH 5.5) was 2.0 days.

With `CN(CCc1ccccc1)P(=O)(O)OCCc1ccccn1` [Entry H69], in data set [1], the “½ Lives for P—N Bond Hydrolysis, pH 3 (result in words)” value is given as “Unstable”; the “½ Lives for P—N Bond Hydrolysis, pH 4.5 (result in words)” value is given as “Unstable”; the “½ Lives for P—N Bond Hydrolysis, pH 6.5 (result in words)” value was “Unstable”; the “½ Lives for P—N Bond Hydrolysis, pH 7.4 (result in words)” value was “Unstable”. Further, the “½ Lives for P—N Bond Hydrolysis, pH 5.5 (result in words)” value in data set [1] (pH 5.5) is given as “Unstable”.

For the compound `O=P(O)(Nc1ccccc1)OCCc1ccccn1` [Entry H85], in data set [1], the “½ Lives for P—N Bond Hydrolysis, pH 3” value was found to be 0.32 hr; the “½ Lives for P—N Bond Hydrolysis, pH 6.5” value amounted to 1.9 hr; the “½ Lives for P—N Bond Hydrolysis, pH 7.4” value is listed as 9.6 hr. In addition, in data set [1] (pH 5.5), the “½ Lives for P—N Bond Hydrolysis, pH 5.5” value is 0.96 hr.

With `O=P(O)(NCCc1ccccc1)OCCc1cccnc1` [Entry H97], in data set [1], the “½ Lives for P—N Bond Hydrolysis, pH 3” value was found to be 2.8 hr; the “½ Lives for P—N Bond Hydrolysis, pH 6.5” value is reported as 4 days; the “½ Lives for P—N Bond Hydrolysis, pH 7.4” value was found to be 16 days. In data set [1] (pH 5.5), the “½ Lives for P—N Bond Hydrolysis, pH 5.5” value was 1.6 days.

On to `CN(CCc1ccccc1)P(=O)(O)OCCc1cccnc1` [Entry H99], for which, in data set [1], the “½ Lives for P—N Bond Hydrolysis, pH 3” value was 0.39 hr; the “½ Lives for P—N Bond Hydrolysis, pH 4.5” value is given as 1.93 hr; the “½ Lives for P—N Bond Hydrolysis, pH 6.5” value amounted to 9.6 hr; the “½ Lives for P—N Bond Hydrolysis, pH 7.4” value was 1.6 days. Besides, the “½ Lives for P—N Bond Hydrolysis, pH 5.5” value in data set [1] (pH 5.5) stood at 3.2 hr.

For `CN(c1ccccc1)P(=O)(O)OCCc1cccnc1` [Entry H105], in data set [1], the “½ Lives for P—N Bond Hydrolysis, pH 3” value came out at 0.64 hr; the “½ Lives for P—N Bond Hydrolysis, pH 4.5” value was determined as 3.85 hr; the “½ Lives for P—N Bond Hydrolysis, pH 6.5” value was determined as 19.3 hr; the “½ Lives for P—N Bond Hydrolysis, pH 7.4” value is recorded as 10 days. In addition, the “½ Lives for P—N Bond Hydrolysis, pH 5.5” value in data set [1] (pH 5.5) is given as 9.6 hr.

In the case of `O=P(O)(Nc1ccccc1)OCCc1cccnc1` [Entry H113], in data set [1], the “½ Lives for P—N Bond Hydrolysis, pH 3” value is 4 days; the “½ Lives for P—N Bond Hydrolysis, pH 4.5” value is reported as 20 days; the “½ Lives for P—N Bond Hydrolysis, pH 6.5” value was 2 days; the “½ Lives for P—N Bond Hydrolysis, pH 6.5 (result in words)” value is “Stable”. Further, in data set [1], the “½ Lives for P—N Bond Hydrolysis, pH 7.4” value stood at 16 days. Besides, the “½ Lives for P—N Bond Hydrolysis, pH 5.5” value in data set [1] (pH 5.5) was determined as 8 days.

`CN(c1ccccc1)P(=O)(O)OCCc1ccccn1` [Entry H115]: in data set [1], the “½ Lives for P—N Bond Hydrolysis, pH 3 (result in words)” value is “Unstable”; the “½ Lives for P—N Bond Hydrolysis, pH 4.5 (result in words)” value is “Unstable”; the “½ Lives for P—N Bond Hydrolysis, pH 6.5 (result in words)” value was “Unstable”; the “½ Lives for P—N Bond Hydrolysis, pH 7.4 (result in words)” value is reported as “Unstable”. Besides, the “½ Lives for P—N Bond Hydrolysis, pH 5.5 (result in words)” value in data set [1] (pH 5.5) is reported as “Unstable”.

In the case of `O=P(O)(NCCc1ccccc1)OCCc1ccccn1` [Entry H119], in data set [1], the “½ Lives for P—N Bond Hydrolysis, pH 3 (result in words)” value is reported as “Unstable”; the “½ Lives for P—N Bond Hydrolysis, pH 6.5” value is 0.32 hr; the “½ Lives for P—N Bond Hydrolysis, pH 7.4” value was determined as 2.1 hr. Also, the “½ Lives for P—N Bond Hydrolysis, pH 5.5” value in data set [1] (pH 5.5) turned out to be 0.13 hr.

As to `CN(CCc1ccccc1)P(=O)(O)OCCCc1ccccc1` [Entry H133], the “½ Lives for P—N Bond Hydrolysis, pH 5.5” value in data set [1] (pH 5.5) came to 9.6 hr. The “½ Life for P—N Bond Hydrolysis, pH 5.5, second value in parentheses” value in data set [1] (pH 5.5, value in parentheses, meaning not explained) is listed as 1.9 hr.

Regarding `CN(c1ccccc1)P(=O)(O)OCCCc1ccccn1` [Entry H135], in data set [1], the “½ Lives for P—N Bond Hydrolysis, pH 3” value is recorded as 0.48 hr; the “½ Lives for P—N Bond Hydrolysis, pH 6.5” value was determined as 3.9 hr; the “½ Lives for P—N Bond Hydrolysis, pH 7.4” value is given as 1.3 days. The “½ Lives for P—N Bond Hydrolysis, pH 5.5” value in data set [1] (pH 5.5) stood at 2.1 hr.

In the case of `Cc1ccc(C(=O)NC(COP(=O)(O)N(C)CCc2ccccc2)C(=O)O)cc1` (stereo not drawn) [Entry H155], in data set [1] (pH 5.5), the “½ Lives for P—N Bond Hydrolysis, pH 5.5” value is recorded as 3.98 min. Also, in data set [1], the “½ Lives for P—N Bond Hydrolysis, pH 6.5” value stood at 9.63 min and the “½ Lives for P—N Bond Hydrolysis, pH 7.4” value stood at 1.93 hr.

On to `Cc1ccc(C(=O)NC(COP(=O)(O)NCCc2ccccc2)C(=O)O)cc1` (stereo not drawn) [Entry H157], for which, in data set [1], the “½ Lives for P—N Bond Hydrolysis, pH 4.5” value turned out to be 5.25 min; the “½ Lives for P—N Bond Hydrolysis, pH 6.5” value worked out at 1.93 hr; the “½ Lives for P—N Bond Hydrolysis, pH 7.4” value is reported as 19.3 hr. Also, the “½ Lives for P—N Bond Hydrolysis, pH 5.5” value in data set [1] (pH 5.5) is 38.5 min.

Consider `Cc1ccc(C(=O)NC(COP(=O)(O)Nc2ccccc2)C(=O)O)cc1` (stereo not drawn) [Entry H159], for which, in data set [1], the “½ Lives for P—N Bond Hydrolysis, pH 3” value came to 12.8 min; the “½ Lives for P—N Bond Hydrolysis, pH 4.5” value is 3.21 hr; the “½ Lives for P—N Bond Hydrolysis, pH 6.5” value is 2.0 days; the “½ Lives for P—N Bond Hydrolysis, pH 7.4” value is recorded as 26.7 days. Further, the “½ Lives for P—N Bond Hydrolysis, pH 5.5” value in data set [1] (pH 5.5) worked out at 19.25 hr.

In the case of `Cc1ccc(C(=O)NC(COP(=O)(O)N(C)c2ccccc2)C(=O)O)cc1` (stereo not drawn) [Entry H161], in data set [1], the “½ Lives for P—N Bond Hydrolysis, pH 4.5” value worked out at 0.98 min; the “½ Lives for P—N Bond Hydrolysis, pH 6.5” value is given as 38.5 min; the “½ Lives for P—N Bond Hydrolysis, pH 7.4” value was 6.42 hr. The “½ Lives for P—N Bond Hydrolysis, pH 5.5” value in data set [1] (pH 5.5) was 16.5 min.

As for `Cc1ccc(C(=O)NC(CCOP(=O)(O)N(C)CCc2ccccc2)C(=O)O)cc1` (stereo not drawn) [Entry H179], in data set [1], the “½ Lives for P—N Bond Hydrolysis, pH 4.5” value was 0.96 hr and the “½ Lives for P—N Bond Hydrolysis, pH 7.4” value was 2 Days days. Besides, the “½ Lives for P—N Bond Hydrolysis, pH 5.5” value in data set [1] (pH 5.5) is listed as 9.62 hr.

For `CN(c1ccccc1)P(=O)(O)OCc1ccccc1C(=O)O` [Entry I11], the “½ Lives for P—N Bond Hydrolysis, pH 5.5” value in data set [1] (pH 5.5) was 14.4 min. Besides, in data set [1], the “½ Lives for P—N Bond Hydrolysis, pH 6.5” value amounted to 57.8 min and the “½ Lives for P—N Bond Hydrolysis, pH 7.4” value worked out at 6.42 hr.
